As usually defined, the IC50 is the concentration that inhibits the measured activity by half. As a reminder, the LD50 is the dose expected to kill half of the subjects tested. Low readings indicate a more toxic substance, high ones a less toxic substance.

In series [1] the test system is L1210 mouse leukemia cells. As to the kind of experiment: Formation of colonies of L1210 leukemia cells in soft agar (cytotoxicity in vitro). Format: cell-based. To be noted: for IC50: Mus musculus. Here is the method: The cytostatic activity of the compounds according to the invention has been tested using L1210 mouse leukemia cells. Employed for this purpose was the formation of colonies of L1210 leukemia cells in agar plates. This method is used to detect the effect of the test substances on the growth behavior of the cells over 1 hour or over several generations. In this connection, with a cell cycle time of 10-12 hours about 14 consecutive generations are observed in the 7 days the test lasts. In this test, the substances having cytostatic activity according to the invention bring about a reduction in the number of colonies to be observed by comparison with an untreated control sample.
Procedure for determining the formation of colonies of L1210 leukemia cells in soft agar
500 leukemia cells per plate were incubated with various concentrations of the test substance at 37° C. for 1 hour. The cells were then washed twice with McCoy5A medium and finally, after addition of 0.3% agar, poured into Petri dishes. Controls were incubated only with fresh medium. In place of the incubation for one hour, in some cases various concentrations and test substances were mixed with the upper agar layer in order in this way to achieve continuous exposure of the cells throughout the incubation time. After the agar had solidified, the plates were incubated in an incubator at 37° C. for 7 days (5% by volume CO2, 95% relative humidity). The number of colonies which had been produced with a diameter of more than 60 μm was then counted. The results have been reported as the number of colonies in treated agar plates as a percentage of the untreated control. The IC50 was determined as a measure of the activity of the substance from the dose-effect plot obtained in this way. The results for the compounds described herein, by comparison with adriamycin, are compiled in Table 1.

In another series the test system is L1210 leukemia. As to the kind of experiment: In vivo activity on L1210 leukemia of the mouse (antitumor activity T/C). Conditions: Mus musculus. Here is the method: Ascites fluid is removed from DBA2 mice (female, 18-20 g) under sterile conditions 7 days after inoculation of tumor cells. The ascites is washed three times with PBS (phosphate-buffered saline), counted and adjusted to a cell count of 10^6 in 0.2 ml of PBS.
10^6 cells, suspended in 0.2 ml of PBS, are then injected intraperitoneally into DBF1 mice (female, 18-20 g). 6 animals per group are used for each substance concentration and as controls.
a) The animals are weighed on days 1 and 5 after injection of the test substance. A weight loss of more than 20% on day 5 is regarded as an indicator of a toxic effect of the substance.
b) At the end of the experiment (death of all animals or surviving animals on day 60) the mean survival time of the animals in the particular groups is determined as long as at least 65% of the animals were still alive on day 5 of the experiment. The mean survival time is determined only for animals which die during the course of the experiment. Long-term survivors (LTS) are not included in this calculation and are reported separately.
The antitumor activity (T/C) for the particular substance concentration is determined from the mean survival time (MSTT) in the treated groups and in the control groups (MSTC) as a percentage of the untreated controls in accordance with the following formula: [formula]
The T/C values and the treatment regimen employed in each case are compiled in Table 3, together with the indicative toxicity. T/C values greater than 125% are regarded as an indicator of a significant antitumor activity of the test substance.

Series [2] is described as follows: Determination of the indicative toxicity. Conditions: mouse, in vivo, ip; 3xip,q3d (three intraperitoneal administrations, 3 days interval); survival day 14. Here is the method:
To determine the indicative toxicity, NMRI mice receive an intraperitoneal injection of various doses of the test substance dissolved in 0.5 ml of 5% strength glucose solution on day 0. Control groups receive merely 0.5 ml of 5% strength glucose solution. 5 mice are used for each concentration of the test substance. The number of mice surviving on day 14 is determined, and from this the LD5, LD50 and LD95 are determined by the Litchfield-Wilcoxon method. The toxicity (LD50 (mg/kg)) of the compounds described here is summarized in Table 3 by comparison with adriamycin.

Series [3] has as its system sensitive and resistant L1210 leukemia cells. Put plainly: Proliferation test (MTT reduction), cross-resistance to doxorubicin/adriamycin in vitro. Format: cell-based, mouse. Here is the method: L1210, A 549 or HT 29 in the exponential phase of growth are incubated in a cell density of 5×10^3 cells/ml in RPMI 1640 in a 96-well microtiter plate with various concentrations of the test substance at 37° C., 5% CO2 and 95% relative humidity for 72 h. Control experiments receive merely growth medium in place of the test substance. Quadruplicate determinations are set up for each test substance and for the control. After incubation for 65 h, 50 μl of an MTT solution (2.5 mg/ml; MTT=3-(4,5-dimethylthiazol-2-yl)-2,5-diphenyltetrazoliumbromide) in phosphate-buffered saline) are added. MTT is reduced to a dark red insoluble formazan dyestuff in the presence of live cells. This reaction is complete after 7 h (L1210 cells) or after 24 h (A 549, HT 29 cells), and the supernatant medium is carefully removed by aspiration. The insoluble dyestuff is dissolved by addition of 100 μl of DMSO (dimethyl sulfoxide) and the extinction of the resulting solution at a wavelength of 492 nm is then measured for each well in a multiscan 340 CC photometer from Flow.
The ratio of the extinctions for treated and untreated cells provides a dose-effect plot from which the concentration which just kills 50% of the cells (IC50) can be read off. The coefficient of variation for repeat investigations is less than 15%.
The cross-resistance between the particular test compound and doxorubicin as standard compound is determined with the aid of the MTT test (see above for method) on sensitive and resistant L1210 leukemia cells.
The resistant cell line was established by incubation of a sensitive subline with the reference compound in concentrations which increased stepwise.
The IC50 of the test compound on the resistant subline related to the IC50 of the sensitive subline provides both the degree of resistance for the test Compound (DR(T)) and that for the reference compound (DR(R)) in accordance with the formula [formula]
In addition, the degree of cross-resistance (DCR) for the test compound is calculated in accordance with the formula [formula]
In the case where the loss of effect of the test compound on the resistant line in relation to the sensitive line is greater than that of the reference compound it is possible for the degree of cross-resistance to be above 100%.
Background: Formazan colour is commonly taken as a measure of viable cells.

[4] abbreviates: 1 h incubation, then 7 days, L1210 colonies in agar.
[5] abbreviates: continuous incubation, 7 days, L1210 colonies in agar.
Where [6] appears, read: 168 h, continuous incubation, 7 days, L1210 colonies in agar, read-out: IC50, continuous incubation.
Setting [7] is: 1 h incubation, then 7 days, L1210 colonies in agar, read-out: IC50, 1 h incubation.
The mark [8] stands for this setting: L1210, 168 h, read-out: IC50, continuous incubation, continuous incubation, 7 days, L1210 colonies in agar.
[9] abbreviates: L1210, read-out: IC50, 1 h incubation, 1 h incubation, then 7 days, L1210 colonies in agar.

Converted amounts (≈) assume the structure as drawn. Like-named read-outs stand apart in the source and are kept apart here.

As for `CC[C@@]1(O)C[C@H](O[C@H]2C[C@H](N(C)CC3CO3)[C@H](O)[C@H](C)O2)c2c(O)c3c(c(O)c2[C@H]1O)C(=O)c1cccc(O)c1C3=O` (single isomer, unassigned) [Compound 8a, 7-O-(3'-N-Glycidyl-3'-N-methyl-alpha-L-daunosaminyl)-β-rhodomycinone], the “IC50, 1 h incubation” value in series [1] (setting [4]) was 0.0034 µg/mL (≈ 0.00581 µM). The “IC50, continuous incubation” value in series [1] (setting [5]) was found to be 0.001 µg/mL (≈ 0.00171 µM).

Regarding `CC[C@@]1(O)C[C@H](O[C@H]2C[C@H](N(C)CC3CO3)[C@H](O)[C@H](C)O2)c2c(O)c3c(c(O)c2[C@H]1O)C(=O)c1cccc(O)c1C3=O` (single isomer, unassigned) [Compound 8b, 7-O-(3'-N-Glycidyl-3'-N-methyl-alpha-L-daunosaminyl)-β-rhodomycinone], the “IC50, 1 h incubation” value in series [1] (setting [4]) was found to be 0.01 µg/mL (≈ 0.0171 µM). The “IC50, continuous incubation” value in series [1] (setting [5]) came out at 0.003 µg/mL (≈ 0.00512 µM).

In the case of `CC[C@@]1(O)C[C@H](O[C@H]2C[C@H](N(C)CCO)[C@H](O)[C@H](C)O2)c2c(O)c3c(c(O)c2[C@H]1O)C(=O)c1cccc(O)c1C3=O` [Compound 3, -O-(3'-N-Hydroxyethyl-3'-N-methyl-alpha-L-daunosaminyl)-β-rhodomycinone], the response vs control in vivo at 1.13 mg/kg with L1210 leukemia (L1210, iv, 3xiv,q3d, dose 1.13 mg/kg, % of the control) is 108%. Moreover, the IC50 in series [1] (setting [6]) was 0.02 µg/mL (≈ 0.0349 µM); in series [1] (setting [7]), 0.044 µg/mL (≈ 0.0767 µM). Also, in series [2], the LD50 at 336 h fell in the range of 0.2 to 1 mg/kg.

As to `CC[C@@]1(O)C[C@H](O[C@H]2C[C@H](N(C)Cc3ccncc3)[C@H](O)[C@H](C)O2)c2c(O)c3c(c(O)c2[C@H]1O)C(=O)c1cccc(O)c1C3=O` [Compound 4, 7-O-(3'-N-Methyl-3'-N-(4-picolyl)-alpha-L-daunosaminyl)-β-rhodomycinone], in series [3] (L1210, MTT, in vitro), the “Cross-resistance to doxorubicin (in words)” value is reported as “not cross-resistant to doxorubicin”. Further, the “Degree of resistance of the cell” value in series [3] (MTT, 3d, IC50 resistant subline related to IC50 sensitive subline) turned out to be 1.6. Besides, the “Cross-resistance to adriamycin (degree of cross-resistance)” value in series [3] (MTT, 3d, adriamycin = 100.0) stood at 0.2%. Further, the IC50 was 0.023 µg/mL (≈ 0.0371 µM) in series [1] (setting [6]) and 0.1 µg/mL (≈ 0.161 µM) in series [1] (setting [7]). The 50% lethal dose (LD50) at 336 h in series [2] was 2.5 to 5 mg/kg.

As for `CC[C@@]1(O)C[C@H](O[C@H]2C[C@H](N(C)Cc3ccccn3)[C@H](O)[C@H](C)O2)c2c(O)c3c(c(O)c2[C@H]1O)C(=O)c1cccc(O)c1C3=O` [Compound 5, 7-O-(3'-N-Methyl-3'-N-(2-picolyl)-alpha-L-daunosaminyl)-β-rhodomycinone], the IC50 in series [1] (setting [6]) is 0.038 µg/mL (≈ 0.0612 µM); in series [1] (setting [7]), 0.24 µg/mL (≈ 0.387 µM).

In turn, `CC[C@@]1(O)C[C@H](O[C@H]2C[C@H](N(C)CC(N)=O)[C@H](O)[C@H](C)O2)c2c(O)c3c(c(O)c2[C@H]1O)C(=O)c1cccc(O)c1C3=O` [Compound 7, 7-O-(3'-N-Acetamido-3'-N-methyl-alpha-L-daunosaminyl)-β-rhodomycinone] returned a response vs control in vivo at 11.2 mg/kg in the series with L1210 leukemia (L1210, iv, 3xiv,q3d, dose 11.2 mg/kg, % of the control) of 142%. Besides, the IC50 in series [1] (setting [6]) worked out at 0.084 µg/mL (≈ 0.143 µM); in series [1] (setting [7]), 0.24 µg/mL (≈ 0.409 µM). For the same molecule, the LD50 at 336 h in series [2] was in the range of 2 to 5 mg/kg.

For `CC[C@@]1(O)C[C@H](O[C@H]2C[C@H](N(C)CC3CO3)[C@H](O)[C@H](C)O2)c2c(O)c3c(c(O)c2[C@H]1O)C(=O)c1cccc(O)c1C3=O` (stereo partly drawn) [Compound 8m, 7-O-(3'-N-Glycidyl-3'-N-methyl-alpha-L-daunosaminyl)-β-rhodomycinone], the response vs control in vivo at 0.47 mg/kg in the series on L1210 leukemia (L1210, ip, read-out: T/C, L1210-leukemia in vivo) was found to be 114%. The IC50 in series [1] (setting [8]) turned out to be 0.002 µg/mL (≈ 0.00342 µM); in series [1] (setting [9]), 0.0072 µg/mL (≈ 0.0123 µM).

`C=CCN(C)[C@H]1C[C@H](O[C@H]2C[C@](O)(CC)[C@H](O)c3c(O)c4c(c(O)c32)C(=O)c2c(O)ccc(O)c2C4=O)O[C@@H](C)[C@H]1O` [Compound 9, 7-O-(3'-N-Allyl-3'-N-methyl-alpha-L-daunosaminyl)-β-isorhodomycinone]: the figures for the IC50 in series [1] (setting [6]) and in series [1] (setting [7]) were 0.008 µg/mL (≈ 0.0137 µM) and 0.5 µg/mL (≈ 0.854 µM), respectively. This molecule gave an LD50 at 336 h in series [2] of more than 6 mg/kg.

Regarding `CC[C@@]1(O)C[C@H](O[C@H]2C[C@H](N(C)Cc3cccs3)[C@H](O)[C@H](C)O2)c2c(O)c3c(c(O)c2[C@H]1O)C(=O)c1cccc(O)c1C3=O` [Compound 13, 7-O-(3'-N-Methyl-3'-N-(2-thenyl)-alpha-L-daunosaminyl)-β-rhodomycinone], the results for the IC50 in series [1] (setting [6]) and in series [1] (setting [7]) were 0.034 µg/mL (≈ 0.0543 µM) and 0.38 µg/mL (≈ 0.607 µM), respectively.

As for `C=CCN(C)[C@H]1C[C@H](O[C@H]2C[C@](O)(C(C)=O)Cc3c(O)c4c(c(O)c32)C(=O)c2c(OC)cccc2C4=O)O[C@@H](C)[C@H]1O` [Compound 15, 7-O-(3'-N-Allyl-3'-N-methyl-alpha-L-daunosaminyl)-daunomycinone], the IC50 in series [1] (setting [8]) is 0.008 µg/mL (≈ 0.0138 µM); in series [1] (setting [9]), more than 1 µg/mL.

With `C=CCN(C)[C@H]1C[C@H](O[C@H]2C[C@](O)(CC)[C@H](O)c3c(O)c4c(c(O)c32)C(=O)c2c(OC)cccc2C4=O)O[C@@H](C)[C@H]1O` [Compound 17, 7-O-(3'-N-Allyl-3'-N-methyl-alpha-L-daunosaminyl)-4-O-methyl-β-rhodomycinone], the half-inhibitory concentration (IC50) is 0.036 µg/mL (≈ 0.0617 µM) in series [1] (setting [6]) and more than 1 µg/mL in series [1] (setting [7]).

With `CC[C@@]1(O)C[C@H](O[C@H]2C[C@H](N(C)CC(C)=O)[C@H](O)[C@H](C)O2)c2c(O)c3c(c(O)c2[C@H]1O)C(=O)c1cccc(O)c1C3=O` [Compound 18, 7-O-(3'-N-Acetonyl-3'-N-methyl-alpha-L-daunosaminyl)-β-rhodomycinone], the IC50 turned out to be 0.018 µg/mL (≈ 0.0307 µM) in series [1] (setting [6]) and 0.073 µg/mL (≈ 0.125 µM) in series [1] (setting [7]).

Source of the values: US5260425A, “Anthracycline derivatives having cytostatic activity” (priority 1988, dated 1993).
